Results published in ChEMBL document CHEMBL5209582, “Membrane potential based assay for SLC6A6 using HEK-293 SLC6A6 OE cells” (2022).

Molecular target: T1, Sodium- and chloride-dependent taurine transporter (Homo sapiens, UniProt P31641)
T1 sequence (P31641 whole entry): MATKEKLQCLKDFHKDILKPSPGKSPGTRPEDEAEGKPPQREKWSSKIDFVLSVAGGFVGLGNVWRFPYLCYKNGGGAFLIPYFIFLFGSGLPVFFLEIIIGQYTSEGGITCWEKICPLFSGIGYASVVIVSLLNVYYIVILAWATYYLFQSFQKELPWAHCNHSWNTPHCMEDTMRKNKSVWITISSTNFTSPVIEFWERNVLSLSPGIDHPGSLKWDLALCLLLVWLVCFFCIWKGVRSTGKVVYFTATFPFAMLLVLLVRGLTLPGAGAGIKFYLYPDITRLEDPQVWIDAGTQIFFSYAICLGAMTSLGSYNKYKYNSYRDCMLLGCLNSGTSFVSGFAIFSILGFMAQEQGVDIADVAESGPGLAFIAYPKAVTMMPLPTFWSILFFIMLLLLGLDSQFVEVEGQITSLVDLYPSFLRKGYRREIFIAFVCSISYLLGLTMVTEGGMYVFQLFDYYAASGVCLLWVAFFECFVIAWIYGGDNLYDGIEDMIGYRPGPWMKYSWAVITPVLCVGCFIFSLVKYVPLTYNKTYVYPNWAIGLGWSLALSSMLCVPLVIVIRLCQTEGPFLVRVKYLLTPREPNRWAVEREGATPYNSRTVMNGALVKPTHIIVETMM
Test: Substrate uptake by the Taurine Transporter (TauT, SLC6A6) as assessed by the fluorescent FLIPR membrane potential dye in HEK-293 JumpIN-SLC6A6 cells (PubChem AID: 1794824)
Assay type: functional, cell-based, HEK293

Row | EC50 | Structure (SMILES)
1 | 354 µM | NCCCC(=O)O [GAMMA-AMINOBUTYRIC ACID]
2 | 10 µM | NCCS(=O)(=O)O [TAURINE]
